Values after ≈ are worked out from the molar mass of the structure shown. Like-named read-outs stand apart in the source and are kept apart here. Where no end group is shown, it is not given here.
Key:
[1] = tested on: human erythrocytes
Experimental: To obtain erythrocytes, heparinized blood was centrifuged for 10 min at 300 g and 4°C. The supernatant liquid was removed, 10 ml of cooled PBS containing 4 mM of EDTA (pH 7.4) was added to the precipitate, and the mixture was centrifuged for 10 min under the same conditions. Then, red blood cells were washed three more times with cooled PBS. The sedimented red blood cells were used for the hemolytic test.
(§1) Here, [MEC A] and [MEC B] are the minimum effective concentrations (MEC) of substances A and B, when they are used alone. […] [A] and [B] are respective concentrations of substances A and B in their combination, where the same statistically significant difference is detected. A non-parametric Mann-Whitney U-test (p < 0.05 or p < 0.01) was used for the mentioned statistical comparison.
(§2) We have chosen the same intervals as that of FICI to determine synergy, additivity, independent action, and antagonism based on the minimal FECI values. However, in case of cytotoxic or hemolytic effect we were interested mainly in testing the possibility of additive or synergistic interaction itself, and not in assessing the exact magnitude of such interaction. Thus, in contrast to the “checkerboard titration” method used for combined antimicrobial activity investigation, studying the combined cytotoxic effect, we considered only two combinations of concentrations for the substances A and B in the mixture: • (½ MEC A + ½ MEC B), which, if found effective, provides the FECI value of 1 (the threshold value for additivity); • (¼ MEC A + ¼ MEC B), which, if found effective, provides the FECI value of 0.5 (the threshold value for synergetic interaction).
(§3) When action on tumor cells was tested in combination with antitumor antibiotic the lower concentrations up to ( 1/16 MEC A + 1/16 MEC B) as in checkerboard titration were additionally examined to assess the magnitude of synergistic effect more precisely. The final conclusion was made based on the three independent experiments.
Two hundred eighty microliters of erythrocyte precipitate obtained as described in section Eukaryotic Cells was added into the sterile 15 ml tube and its volume was adjusted to 10 ml with cooled PBS. Using 0.5 ml plastic tubes, 3 μl of the tested compound serially diluted in PBS or of the combination of two compounds were mixed with the 27 μl of the prepared erythrocyte suspension for each sample. For positive control (100% lysis of erythrocytes) 3 μl of the detergent (10% Triton X-100 solution in PBS) were added to the 27 μl of the erythrocyte suspension, and for negative control (0% lysis of erythrocytes) 3 μl of the PBS were used instead of any cell-damaging compound. […] After incubation, the hemolysis process was stopped by the addition of 75 μl of cooled PBS. The samples were centrifuged at 5,000 g and 4°C for 4 min. The optical density of the supernatants was measured at a wavelength of 540 nm using SpectraMax 250 Spectrophotometer (Molecular Devices, USA). The experiments were repeated three times. In each experiment all the test or control samples were made in triplicates. The percentage of hemolysis of erythrocytes was assessed by the following formula:
where ODsample, OD0%lysis, and OD100%lysis are values of the OD at 540 nm for the test sample, negative (0% lysis) control, and positive (100% lysis) control, respectively. However, due to the design of the study of combined action, described above in Combined Hemolytic or Cytotoxic Action, the obtained ODsample and OD0%lysis values were rather used to determine MECs and FECI by the Mann-Whitney U-test (p < 0.05, n1, n2 = 3).

[2] = tested on: M. luteus CIP A270; test: microbe, parasite or virus in culture; format: cell-based, Micrococcus luteus
Experimental: (§7) Prior to the “checkerboard” synergy test the minimal inhibitory concentrations (MIC) of individual substances were determined using broth microdilution assay. Testing was performed in 60-well polystyrene Terasaki microplates with V-shaped bottom generally according to the guidelines of the European Committee for Antimicrobial Susceptibility Testing with subtle modifications designed for AMP testing (Tossi et al., [1997]; Wiegand et al., [2008]). Cultivation of bacteria was carried out in 2.1% Müller-Hinton broth at 37°C with shaking. Two-fold serial dilutions of peptides, antibiotics and other antimicrobials were made with 10 mM sodium phosphate buffer, pH 7.4, containing 0.1% of BSA. The plates were preliminary incubated with 0.1% BSA for 1 h at 37°C to reduce a non-specific binding of peptides to the plates. After that BSA was removed, and serial dilutions were added into the plate wells in triplicates followed by the same volume of the suspension of bacterial cells in logarithmic phase of growth in concentration of 1 × 10^6 CFU/ml. After the 18 h overnight incubation at 37°C, the MIC value for each compound was determined as its lowest concentration completely inhibiting the visible growth of bacteria. The final results were calculated as median values based on 3–6 independent experiments.

[3] = tested on: A. baumannii (clin. isol.); test: microbe, parasite or virus in culture; format: cell-based, Acinetobacter baumannii
Experimental: as §7

[4] = tested on: Murine peritoneal macrophages; test: MTT-test
Experimental: (§4) Before the cells extraction, mice were sacrificed by cervical dislocation in accordance with the supplement to the Directive 86/609/EEC and its update Directive 2010/63/EU addressing the recommendations for euthanasia of experimental animals (Close et al., [1996]). To obtain peritoneal macrophages, healthy mice were used. The abdominal cavity of each animal was washed with 3 ml of sterile PBS using a Pasteur pipette. The culture of EAC cells was kindly provided by Dr. E.P. Kiseleva (Immunology Department of the Institute of Experimental Medicine, Saint Petersburg, Russia). On the tenth day after the intraperitoneal tumor inoculation, 0.5–1.5 ml of ascitic fluid containing EAC cells was obtained from the abdominal cavity of the animals. Murine cells (normal or tumor) were washed twice with 10 ml of sterile PBS and resuspended in RPMI-1640 medium as described above for human neutrophils and PBMC.
(§5) We calculated Fractional Effective Concentration Index (FECI), which could be seen as a particular case of the interaction index (I) proposed by Berenbaum ([1977]) or of the similar combination index (CI) proposed by Chou and Talalay ([1983]), according to the equation below: […]
as §1, §2, §3
(§6) Standard MTT-test (Mosmann, [1983]) was used for the examination of the cytotoxic activity of antimicrobial compounds and their combinations toward varied eukaryotic cells. Briefly, cell suspensions in RPMI-1640 prepared as described in Eukaryotic Cells were dispensed into the 96-well microplates (2 × 10^5 cells/well). Then, serial dilutions of AMPs, or other antibiotic compounds, or their mixtures in RPMI-1640 were added. In positive controls (100% cell survival) the according volume of RPMI-1640 without test substances was added instead. The final volume in each well was 100 μl. Negative controls (0% cell survival) were made with 100 μl of the sterile RPMI-1640. The plates were incubated at 37°C under 5% CO2 for 24 h. Four hours before the end of incubation, 10 μl of metabolic marker MTT−3-(4,5-dimethylthiazol-2-yl)-2,5-diphenyltetrazolium bromide (5 mg/ml, diluted in PBS) was added to each well. Incubation was stopped by adding 90 μl of isopropanol containing 0.04 M HCl. Content of the wells was thoroughly mixed, so that the formazan crystals, formed in case of the reduction of MTT in presence of actively metabolizing cells, were fully dissolved.

[5] = tested on: MRSA ATCC 33591; test: microbe, parasite or virus in culture; format: cell-based, Staphylococcus aureus; settings: median of 3–6 experiments, square brackets = twice the maximal tested concentration
Experimental: as §7

[6] = tested on: K562; settings: K562 tumor cells (doxorubicin-sensitive); MTT, 24 h
Experimental: The human erythromyeloid leukemia cell line K562 was obtained from the collection of the Institute of Cytology RAS (Saint Petersburg, Russia) and cultured in RPMI-1640 medium containing gentamicin (100 μg/ml) and 10% of fetal bovine serum at 37°C, 5% CO2. […] Drug resistance was maintained by monthly selection with the antibiotic (2 μg/ml in the culturing medium). Doxorubicin was removed from the medium 3 days prior to beginning any experiments. Before the testing K562 cells were washed twice with PBS and resuspended in RPMI-1640 in the same way as the other cell types.
as §5, §1, §2, §3, §6

[7] = tested on: Murine EAC; test: MTT-test; format: cell-based, mice; settings: Murine EAC tumor cells, 24 h
Experimental: as §4, §5, §1, §2, §3, §6

[8] = Micrococcus luteus, CIPA270, median of 3–6 experiments
[9] = Acinetobacter baumannii, A. baumannii (clin. isol.), susceptible, median of 3–6 experiments, read-out: MIC
[10] = Staphylococcus aureus, read-out: MIC
[11] = A. baumannii (clin. isol.), susceptible, median of 3–6 experiments, read-out: MIC
[12] = Murine peritoneal macrophages, normal cells, MTT, 24 h

Compound	hemolytic action (in words) [1]	MEC of hemolysis of human erythrocytes ([1]; human, 30 min)	MIC [2, 8] [µM]	MIC [3, 9] [µM]	MEC of cytotoxic action ([4]; mouse, 24 h)	MIC [5, 10] [µM]	MEC of cytotoxic action [6]	MEC of cytotoxic action [7]	MIC ([3]; Acinetobacter baumannii) [µM]	MEC of hemolysis of human erythrocytes [1]	MIC ([2]; median of 3–6 experiments) [µM]	MIC [3, 11] [µM]	MEC of cytotoxic action [4]	MIC [5]	MEC of hemolysis of human erythrocytes ([1]; 30 min, 37°C, no blood serum)	MEC of cytotoxic action [4, 12]	MIC ([5]; read-out: MIC) [µM]
Cc1onc(-c2ccccc2)c1C(=O)N[C@@H]1C(=O)N2[C@@H]1SC(C)(C)[C@@H]2C(=O)O [Oxacillin]	slight hemolityc action	25 µM	3.1 (≈ 1.24 µg/mL)	25 (≈ 10 µg/mL)	>50 [100] μM	7.5 (≈ 3.01 µg/mL)	>50 [100] μM	>50 [100] μM	–	–	–	–	–	–	–	–	–
CNC(C)C1CCC(N)C(OC2C(N)CC(N)C(OC3OCC(C)(O)C(NC)C3O)C2O)O1 (stereo not shown) [Gentamicin]	–	>50 [100] μM	0.16 (≈ 0.0764 µg/mL)	0.06 (≈ 0.0287 µg/mL)	>50 [100] μM	0.16 (≈ 0.0764 µg/mL)	50 µM	>50 [100] μM	–	–	–	–	–	–	–	–	–
CO[C@H]1/C=C/O[C@@]2(C)Oc3c(C)c(O)c4c(O)c(c(/C=N/N5CCN(C)CC5)c(O)c4c3C2=O)NC(=O)/C(C)=C\C=C\[C@H](C)[C@H](O)[C@@H](C)[C@@H](O)[C@@H](C)[C@H](OC(C)=O)[C@@H]1C [Rifampicin]	slight hemolityc action	20 µM	0.003 (≈ 0.00247 µg/mL)	–	>20 [40] μM	0.003 (≈ 0.00247 µg/mL)	>20 [40] μM	>20 [40] μM	0.125 (≈ 0.103 µg/mL)	–	–	–	–	–	–	–	–
Lysozyme: egg white lysozyme, antimicrobial protein, from BioChemica	–	–	–	–	–	–	>50 [100] μM	50 µM	–	>50 [100] μM	0.08	1.2	>50 [100] μM	>250 [500] μM	–	–	–
CC[C@H](C)[C@H](NC(=O)[C@H](CCCCN)NC(=O)[C@H](CCC(=O)O)NC(=O)[C@H](CCCCN)NC(=O)[C@H](CO)NC(=O)[C@H](CCCCN)NC(=O)[C@H](CCCNC(=N)N)NC(=O)[C@H](Cc1ccccc1)NC(=O)[C@H](Cc1ccccc1)NC(=O)[C@H](CC(=O)O)NC(=O)CNC(=O)[C@H](CC(C)C)NC(=O)[C@@H](N)CC(C)C)C(=O)NCC(=O)N[C@@H](CCCCN)C(=O)N[C@@H](CCC(=O)O)C(=O)N[C@@H](Cc1ccccc1)C(=O)N[C@@H](CCCCN)C(=O)N[C@@H](CCCNC(=N)N)C(=O)N[C@H](C(=O)N[C@H](C(=O)N[C@@H](CCC(N)=O)C(=O)N[C@@H](CCCNC(=N)N)C(=O)N[C@H](C(=O)N[C@@H](CCCCN)C(=O)N[C@@H](CC(=O)O)C(=O)N[C@@H](Cc1ccccc1)C(=O)N[C@@H](CC(C)C)C(=O)N[C@@H](CCCNC(=N)N)C(=O)N[C@@H](CC(N)=O)C(=O)N[C@@H](CC(C)C)C(=O)N[C@H](C(=O)N1CCC[C@H]1C(=O)N[C@@H](CCCNC(=N)N)C(=O)N[C@H](C(=O)N[C@@H](CCC(=O)O)C(=O)N[C@@H](CO)C(=O)O)[C@@H](C)O)C(C)C)[C@@H](C)CC)C(C)C)[C@@H](C)CC [LL-37]	–	–	–	–	–	–	5.0 µM	10 µM	–	–	–	–	–	–	5.0 µM	>20 [40] μM	–
Polymyxin B	–	–	–	–	–	–	25 µM	50 µM	–	–	0.6	1.25	–	–	>50 [100] μM	50 µM	12.5
RFRLPFRRPPIRIHPPPFYPPFRRFL-NH2 (C-terminus assumed) [ChBac3.4]	–	–	–	–	–	–	20 µM	5.0 µM	–	>50 [100] μM	–	–	>20 [40] μM	–	–	–	–
CC1COc2c(N3CCN(C)CC3)c(F)cc3c(=O)c(C(=O)O)cn1c23 (stereo not shown) [Ofloxacin]	–	>50 [100] μM	5 (≈ 1.81 µg/mL)	0.3 (≈ 0.108 µg/mL)	>50 [100] μM	0.625 (≈ 0.226 µg/mL)	>50 [100] μM	>50 [100] μM	–	–	–	–	–	–	–	–	–
